In article PMC5740381 (Antimicrobial Agents and Chemotherapy, 2017):

What was measured:
HIV-1 pNL4-3 = assay: HIV-1 5-day cytoprotection assay in MT4 cells; type: cell-based, human immunodeficiency virus type 1; conditions: Human immunodeficiency virus 1, HIV-1 pNL4-3 infectivity, HIV-1 PI alone
Protocol: . […]. The plates were incubated at 37°C for 5 days. After this period, 25 μl MTT reagent (4 mg/ml) was added to the cells, and the plates were incubated for 4 h. The MTT formazan formed in the cells was solubilized by 50 μl of acidified SDS overnight. The plates were read at wavelengths of 570 and 650 nm using a spectrophotometer. […]

4a R155C = target: T1, 4a R155C; assay: Luciferase assay of HCV replication in transient-transfection replicons with wild-type or substituted NS3 (at least 3 transfections).; type: cell-based, Huh-7; conditions: SD, n = 3
T1 construct: in chimeric transient replicon

GT6a / 6a Wild type [1] = target: T2, GT6a / 6a Wild type; assay: as above; type: cell-based, Huh-7; conditions: SD, n = 3
T2 construct: NS3 N-terminal region in chimeric replicon

6a D168H = target: T3, 6a D168H; assay: as above; type: cell-based, Huh-7; conditions: SD, n = 3
T3 construct: in chimeric transient replicon

GT2b / 2b Wild type = target: T4, GT2b / 2b Wild type; assay: as above; type: cell-based, Huh-7; conditions: SD, n = 3
T4 construct: NS3 protease domain (N-terminal 251 aa) in genotype 2a JFH-1 chimeric replicon

4d Wild type = target: T5, 4d Wild type; assay: as above; type: cell-based, Huh-7; conditions: SD, n = 3
T5 construct: NS3 in transient replicon

3a Q168R = target: T6, 3a Q168R; assay: as above; type: cell-based, Huh-7; conditions: SD, n = 3
T6 construct: in chimeric transient replicon

2b A156T = target: T7, 2b A156T; assay: as above; type: cell-based, Huh-7; conditions: SD, n = 3
T7 construct: in genotype 2a JFH-1 chimeric transient replicon

GT3a / 3a Wild type [2] = target: T8, GT3a / 3a Wild type; assay: as above; type: cell-based, Huh-7; conditions: SD, n = 3
T8 construct: NS3 N-terminal region in chimeric replicon

4d D168V = conditions: read-out: Mean EC50 ± SD, n = 3
Protocol: Mutagenesis was performed using a Change-IT multiple-mutation site-directed mutagenesis kit (USB, Cleveland, OH) or by cloning a synthesized DNA fragment encoding the amino acid substitution(s). The genotype 1a and 1b replicon shuttle vectors used for the introduction of the substitutions of interest in the NS3, NS5A, or NS5B gene for transient-transfection assays have been described previously ([28], [33]). The replicon shuttle vectors used for the introduction of substitutions in NS3 genes from other genotypes were similar to the stable replicon cell line constructs described above, except for the absence of the neo gene. After mutagenesis, the plasmids were linearized and RNA was transcribed and then used to transfect Huh-7 cells. Inhibition of HCV replication by the HCV inhibitors was measured by luciferase assay, as described above. Replication efficiency was calculated as a percentage of wild-type replication, as described previously ([28]).

2b D168A = target: T9, 2b D168A; assay: Luciferase assay of HCV replication in transient-transfection replicons with wild-type or substituted NS3 (at least 3 transfections).; type: cell-based, Huh-7; conditions: SD, n = 3
T9 construct: in genotype 2a JFH-1 chimeric transient replicon

4a D168H = target: T10, 4a D168H; assay: as above; type: cell-based, Huh-7; conditions: SD, n = 3
T10 construct: in chimeric transient replicon

6a D168V = target: T11, 6a D168V; assay: as above; type: cell-based, Huh-7; conditions: SD, n = 3
T11 construct: in chimeric transient replicon

4a A156T = target: T12, 4a A156T; assay: as above; type: cell-based, Huh-7; conditions: SD, n = 3
T12 construct: in chimeric transient replicon

3a A156G = target: T13, 3a A156G; assay: as above; type: cell-based, Huh-7; conditions: SD, n = 3
T13 construct: in chimeric transient replicon

GT4a / 4a Wild type [3] = target: T14, GT4a / 4a Wild type; assay: as above; type: cell-based, Huh-7; conditions: SD, n = 3
T14 construct: NS3 N-terminal region in chimeric replicon

2b A156V = target: T15, 2b A156V; assay: as above; type: cell-based, Huh-7; conditions: SD, n = 3
T15 construct: in genotype 2a JFH-1 chimeric transient replicon

4a A156V = target: T16, 4a A156V; assay: as above; type: cell-based, Huh-7; conditions: SD, n = 3
T16 construct: in chimeric transient replicon

2b D168V = target: T17, 2b D168V; assay: as above; type: cell-based, Huh-7; conditions: SD, n = 3
T17 construct: in genotype 2a JFH-1 chimeric transient replicon

4a D168V = target: T18, 4a D168V; assay: as above; type: cell-based, Huh-7; conditions: SD, n = 3
T18 construct: in chimeric transient replicon

6a D168A = target: T19, 6a D168A; assay: as above; type: cell-based, Huh-7; conditions: SD, n = 3
T19 construct: in chimeric transient replicon

2b D168E = target: T20, 2b D168E; assay: as above; type: cell-based, Huh-7; conditions: SD, n = 3
T20 construct: in genotype 2a JFH-1 chimeric transient replicon

GT6a / 6a Wild type [4] = system: T2, GT6a / 6a Wild type; assay: Luciferase reporter assay of HCV replication in stable subgenomic replicon cells, 5% fetal bovine serum, no human plasma (at least 3 experiments).; type: cell-based, Huh-7; conditions: SD, n = 3; read-out: HCV stable replicons in 0% human plasma, Mean EC50 ± SD
Source text: (§1) . Five of these nine cell lines have been described previously, including those transfected with genotypes 1a H77, 1b Con1, 3a, 4a, and 6a ([28]). The other four cell lines were established by transfecting cells with a nonchimeric genotype 2a JFH-1 replicon (GenBank accession number AB047639), two genotype 2a JFH-1 chimeric replicons containing either a genotype 2b NS3 protease domain (N-terminal 251 amino acids) or a sequence encoding full-length NS3 through the first 39 amino acids of NS5B from genotype 5a (strain SA13), and one chimeric replicon with a genotype 1b Con1 backbone containing full-length NS3 and NS4A sequences from genotype 6e. The genotype 2b and 6e NS3 sequences were each synthetically constructed based on a consensus sequence derived from the alignment of 15 genotype 2b and 4 genotype 6e sequences, respectively. All replicon constructs were bicistronic subgenomic replicons similar to those described by Bartenschlager and coworkers, and the replicon cell lines were generated by introducing these constructs into cells of an Huh-7 human hepatoma-derived cell line ([50]). The inhibitory effect of the PIs on HCV replication in replicon cells was determined in Dulbecco's modified Eagle medium containing 5% fetal bovine serum with or without 40% human plasma (Bioreclamation, Westbury, NY). The EC50s were determined using nonlinear regression curve fitting as described previously ([33]).

GT4a / 4a Wild type [5] = system: T14, GT4a / 4a Wild type; assay: as above; type: cell-based, Huh-7; conditions: SD, n = 3; read-out: HCV stable replicons in 0% human plasma, Mean EC50 ± SD
Source text: as §1

GT6e = system: T21, GT6e; assay: as above; type: cell-based, Huh-7; conditions: SD, n = 3; read-out: HCV stable replicons in 0% human plasma, Mean EC50 ± SD
T21 construct: full-length NS3 and NS4A in genotype 1b Con1 chimeric replicon
Source text: as §1

GT3a / 3a Wild type [6] = system: T8, GT3a / 3a Wild type; assay: as above; type: cell-based, Huh-7; conditions: SD, n = 3; read-out: HCV stable replicons in 0% human plasma, Mean EC50 ± SD
Source text: as §1

[7] = system: genotype 1b Con1 replicon cells; assay: Checkerboard combination assay (MacSynergy II); type: cell-based, Hepatitis C virus
Protocol: […]. The resulting data were analyzed using the MacSynergy II program ([34], [51], [52]). The assignment of the synergy or antagonism volumes was based on the guidelines provided in the MacSynergy II program user's manual ([34]).

**Q.** How did the EC50 (HIV-1 pNL4-3) turn out when `CC(C)CN(C[C@@H](O)[C@H](Cc1ccccc1)NC(=O)O[C@H]1CO[C@H]2OCC[C@H]21)S(=O)(=O)c1ccc(N)cc1` [Darunavir] was run?
**A.** 10 nM

**Q.** With `C=C[C@@H]1C[C@]1(NC(=O)[C@@H]1C[C@@H]2CN1C(=O)[C@H](C(C)(C)C)NC(=O)O[C@@H]1C[C@H]1CCCCCc1nc3ccc(OC)cc3nc1O2)C(=O)NS(=O)(=O)C1CC1` [Grazoprevir, grazoprevir (MK-5172)] as the compound, how does the EC50 (4a R155C) read?
**A.** 2 ± 0.27 nM

**Q.** And the EC50 (GT6a / 6a Wild type [1])?
**A.** 0.1 ± 0.02 nM

**Q.** And the EC50 (6a D168H)?
**A.** 45 ± 4.1 nM

**Q.** What about the EC50 (GT2b / 2b Wild type) of the same compound?
**A.** 6.1 ± 1.3 nM

**Q.** And the EC50 (4d Wild type)?
**A.** 0.18 ± 0.01 nM

**Q.** And the EC50 (3a Q168R)?
**A.** 165 ± 46 nM

**Q.** What about the EC50 (2b A156T) of the same compound?
**A.** 1560 nM

**Q.** What about the EC50 (GT3a / 3a Wild type [2]) of the same compound?
**A.** 47 ± 14 nM

**Q.** And the EC50 (4d D168V)?
**A.** 2.5 ± 0.08 nM

**Q.** And the EC50 (2b D168A)?
**A.** 347 ± 113 nM

**Q.** And the EC50 (4a D168H)?
**A.** 25 ± 6.3 nM

**Q.** And the EC50 (6a D168V)?
**A.** 24 ± 1.2 nM

**Q.** What about the EC50 (4a A156T) of the same compound?
**A.** 296 ± 22 nM

**Q.** And the EC50 (3a A156G)?
**A.** 614 ± 148 nM

**Q.** What about the EC50 (GT4a / 4a Wild type [3]) of the same compound?
**A.** 0.28 ± 0.04 nM

**Q.** What about the EC50 (2b A156V) of the same compound?
**A.** 2890 nM

**Q.** And the EC50 (4a A156V)?
**A.** 169 ± 27 nM

**Q.** And the EC50 (2b D168V)?
**A.** 88 ± 19 nM

**Q.** And the EC50 (4a D168V)?
**A.** 13 ± 1.1 nM

**Q.** And the EC50 (6a D168A)?
**A.** 103 ± 34 nM

**Q.** What about the EC50 (2b D168E) of the same compound?
**A.** 35 ± 6 nM

**Q.** What about the EC50 (GT6a / 6a Wild type [4]) of the same compound?
**A.** 0.89 ± 0.32 nM

**Q.** And the EC50 (GT4a / 4a Wild type [5])?
**A.** 1.2 ± 0.31 nM

**Q.** What about the EC50 (GT6e) of the same compound?
**A.** 0.25 ± 0.01 nM

**Q.** And the EC50 (GT3a / 3a Wild type [6])?
**A.** 83 ± 18 nM

**Q.** Which EC50 (HIV-1 pNL4-3) does the source give for `Cc1cccc(C)c1OCC(=O)N[C@@H](Cc1ccccc1)[C@@H](O)C[C@H](Cc1ccccc1)NC(=O)[C@H](C(C)C)N1CCCNC1=O` [Lopinavir] here?
**A.** 23 nM

**Q.** `NC(=O)c1ncn([C@@H]2O[C@H](CO)[C@@H](O)[C@H]2O)n1` [RBV, reference compound] was tested. Which EC50 ([7]; Hepatitis C virus) did it give?
**A.** 19000 nM

**Q.** For IFN-α, which EC50 ([7]; genotype 1b replicon cells) is on record?
**A.** 1.2 IU/ml
